Bounds are passed on as bounds.

This note sets out measurements from the Kinase Knowledgebase extract (Sharma et al. 2016).

The target of one assay is CDK2 (UniProt P24941). The assay is described as follows: Enzyme Assay.
In the case of `O=C(NCC1CCCNC1)c1n[nH]cc1NC(=O)c1c(F)cccc1F` (stereo not given), the IC50 is less than 20 µM.
Take `O=C(Nc1ccc(F)cc1)c1n[nH]cc1NC(=O)c1c[nH]c2ccccc12`: the IC50 is less than 20 µM.
In the case of `Cn1cc(CC(=O)Nc2c[nH]nc2C(=O)Nc2ccc(F)cc2)c2ccccc21`, the concentration for half-maximal inhibition (IC50) was less than 20 µM.
The compound `O=C(NCc1c(F)cccc1F)c1n[nH]cc1NC(=O)c1c(F)cccc1F` had an IC50 of less than 20 µM.
Still for that read-out and setting: as for `O=C(Nc1cccc(CN2CCOCC2)c1)c1n[nH]cc1NC(=O)c1c(F)cccc1F`, the figure is less than 20 µM; as for `O=C(NCCN1CCOCC1)c1n[nH]cc1NC(=O)c1c(F)cccc1F`, less than 20 µM; as for `CN1CCN(c2ccc(CNC(=O)c3n[nH]cc3-c3ccc(Cl)cc3Cl)cc2)CC1`, less than 750 µM.
Same read-out and setting: as for `O=C(Nc1ccccc1)c1n[nH]cc1-c1ccccc1`, the figure is less than 20 µM; as for `O=C(Nc1c[nH]nc1C(=O)Nc1ccc(F)cc1)c1ccccn1`, less than 20 µM.
Same read-out and setting: as for `COC(=O)c1cccc(NC(=O)c2n[nH]cc2NC(=O)c2c(F)cccc2F)c1N`, the figure is less than 20 µM; as for `CC(C)(C)OC(=O)N1CCCC(CNC(=O)c2n[nH]cc2NC(=O)c2c(F)cccc2F)C1` (stereo not given), less than 20 µM.
On to `Cc1[nH]nc(C(=O)Nc2ccc(F)cc2)c1NC(=O)c1c(F)cccc1F`, for which the half-inhibitory concentration (IC50) is less than 20 µM.
`O=C(Nc1c[nH]nc1C(=O)Nc1ccc(F)cc1)c1ccc(O)nc1` registered an IC50 of less than 20 µM.
`Cc1onc(-c2ccccc2)c1C(=O)Nc1c[nH]nc1C(=O)Nc1ccc(F)cc1`: the IC50 was less than 20 µM.
Same read-out and setting: as for `CC1(C)CC(NC(=O)c2n[nH]cc2NC(=O)c2c(F)cccc2F)CC(C)(C)N1`, the figure is less than 750 µM.
In turn, `O=C(Cc1c[nH]cn1)Nc1c[nH]nc1C(=O)Nc1ccc(F)cc1` had an IC50 of less than 20 µM.
The same measure, in the same setting: as for `O=C(Nc1ccccn1)c1n[nH]cc1NC(=O)c1c(F)cccc1F`, the figure is less than 20 µM.
Still for that read-out and setting: as for `O=C(NCc1ccccc1)c1n[nH]cc1NC(=O)c1c(F)cccc1F`, the figure is less than 20 µM; as for `O=C(NCc1ccccc1F)c1n[nH]cc1NC(=O)c1c(F)cccc1F`, less than 20 µM; as for `CC(C)(C)C1CCC(NC(=O)c2n[nH]cc2NC(=O)c2c(F)cccc2F)CC1` (stereo not given), less than 20 µM.
Same read-out and setting: to `O=C(Nc1c[nH]nc1C(=O)Nc1ccc(F)cc1)c1ccsc1` belongs less than 20 µM; to `O=C(Nc1c[nH]nc1C(=O)Nc1ccc(F)cc1)c1cc[nH]c1`, less than 20 µM.
In turn, `CN1CCN(c2ccc(CNC(=O)c3n[nH]cc3NC(=O)c3c(F)cccc3F)cc2)CC1` displayed an IC50 of less than 20 µM.
Same read-out and setting: to `O=C(Nc1ccc(F)cc1)c1n[nH]cc1NC(=O)C(F)(F)F` belongs less than 20 µM; to `O=C(Nc1ccc(F)cc1)c1n[nH]cc1NC(=O)C1(O)CC1`, less than 20 µM; to `CC(CO)Nc1c[nH]nc1C(=O)Nc1ccc(F)cc1` (stereo not given), less than 20 µM.
The same measure, in the same setting: as for `CC(C)Nc1c[nH]nc1C(=O)Nc1ccc(F)cc1`, the figure is less than 20 µM; as for `CC(=O)Nc1c(C(=O)Nc2ccc(F)cc2)n[nH]c1C`, less than 20 µM; as for `O=C(Nc1c[nH]nc1C(=O)Nc1ccc(F)cc1)c1ccoc1`, less than 20 µM.
Turning to `COc1cccc(OC)c1C(=O)Nc1c[nH]nc1C(=O)Nc1ccc(F)cc1`, the IC50 is less than 20 µM.
The same measure, in the same setting: to `Cn1cc(N)nc1C(=O)Nc1c[nH]nc1C(=O)Nc1ccc(F)cc1` belongs less than 20 µM.
Same read-out and setting: as for `O=C(Nc1c[nH]nc1C(=O)Nc1ccc(F)cc1)c1ccccc1[N+](=O)[O-]`, the figure is less than 20 µM; as for `O=C(Nc1ccc(F)cc1)c1n[nH]cc1NC(=O)c1c(O)cccc1F`, less than 20 µM.
On the same count and under the same terms, to `Cc1sccc1C(=O)Nc1c[nH]nc1C(=O)Nc1ccc(F)cc1` belongs less than 20 µM; to `O=C(Nc1c[nH]nc1C(=O)Nc1ccc(F)cc1)c1ccc2cc[nH]c2c1`, less than 20 µM.
Consider `CN1CCN(c2ccc(CNC(=O)c3n[nH]cc3-c3ccccc3)cc2)CC1`, for which the concentration for half-maximal inhibition (IC50) is less than 750 µM.
Still for that read-out and setting: to `COc1ccccc1C(=O)Nc1c[nH]nc1C(=O)Nc1ccc(F)cc1` belongs less than 20 µM; to `NC(=O)c1n[nH]cc1-c1ccccc1`, less than 750 µM.
`CN1CCC(NC(=O)c2n[nH]cc2NC(=O)c2c(F)cccc2F)CC1` gave an IC50 of less than 20 µM.
The same measure, in the same setting: to `O=C(CCc1nnc[nH]1)Nc1c[nH]nc1C(=O)Nc1ccc(F)cc1` belongs less than 20 µM.
Consider `CC(=O)N1CCC(C(=O)Nc2c[nH]nc2C(=O)Nc2ccc(F)cc2)CC1`, for which the IC50 is less than 20 µM.
Take `Nc1nnnn1CC(=O)Nc1c[nH]nc1C(=O)Nc1ccc(F)cc1`: the IC50 is less than 20 µM.
`O=C(Nc1ccc(F)cc1)c1n[nH]cc1Nc1nccnc1Cl` yielded a concentration for half-maximal inhibition (IC50) of less than 20 µM.
Take `O=C(Nc1cccc(CO)c1)c1n[nH]cc1NC(=O)c1c(F)cccc1F`: the 50% inhibitory concentration (IC50) is less than 20 µM.
Still for that read-out and setting: to `O=C(Nc1c[nH]nc1C(=O)Nc1ccc(F)cc1)c1cnc[nH]1` belongs less than 20 µM; to `O=C(NC1CCOCC1)c1n[nH]cc1NC(=O)c1c(F)cccc1F`, less than 20 µM; to `Cc1ccc(C)n1-c1c[nH]nc1C(=O)Nc1ccc(F)cc1`, less than 750 µM.
The same measure, in the same setting: as for `O=C(NCC1CCOCC1)c1n[nH]cc1NC(=O)c1c(F)cccc1F`, the figure is less than 20 µM; as for `CC1CCCC(C)N1CCNC(=O)c1n[nH]cc1NC(=O)c1c(F)cccc1F` (stereo not given), less than 20 µM.
On the same count and under the same terms, to `COc1cccc(C(=O)Nc2c[nH]nc2C(=O)Nc2ccc(F)cc2)c1F` belongs less than 20 µM; to `O=C(Nc1c[nH]nc1C(=O)Nc1ccc(F)cc1)c1ccc(F)cc1`, less than 20 µM.
With `O=C(CO)Nc1c[nH]nc1C(=O)Nc1ccc(F)cc1`, the IC50 was less than 20 µM.
`COc1ccc(F)c(C(=O)Nc2c[nH]nc2C(=O)Nc2ccc(F)cc2)c1` yielded an IC50 of less than 20 µM.
As for `O=C(Nc1ccc(F)cc1)c1n[nH]cc1Nc1ccccn1`, the 50% inhibitory concentration (IC50) is less than 20 µM.
The same measure, in the same setting: as for `O=C(Cc1c[nH]c2ccccc12)Nc1c[nH]nc1C(=O)Nc1ccc(F)cc1`, the figure is less than 20 µM; as for `O=C(Nc1c[nH]nc1C(=O)Nc1ccc(F)cc1)c1ccco1`, less than 20 µM.
Still for that read-out and setting: as for `O=C(Nc1ccc(F)cc1)c1n[nH]cc1NC1CCCCC1`, the figure is less than 20 µM; as for `O=C(NCc1ccccc1Cl)c1n[nH]cc1NC(=O)c1c(F)cccc1F`, less than 20 µM; as for `CN1CCC(Oc2ccc(F)cc2NC(=O)c2n[nH]cc2NC(=O)c2c(F)cccc2F)CC1`, less than 20 µM.
The same measure, in the same setting: to `COc1cccc(C(=O)Nc2c[nH]nc2C(=O)Nc2ccc(F)cc2)c1` belongs less than 20 µM.
On to `Cc1ccc(C(=O)Nc2c[nH]nc2C(=O)Nc2ccc(F)cc2)cc1`, for which the IC50 is less than 20 µM.
With `CN(c1c[nH]nc1C(=O)Nc1ccc(F)cc1)C1CCCCC1`, the 50% inhibitory concentration (IC50) is less than 20 µM.

The next assay has as its target CDK2 (UniProt P24941). In words: Enzyme Assay. This is another data set of the same source.
`COc1cccc(F)c1C(=O)Nc1c[nH]nc1C(=O)NC1CCC(C(C)(C)C)CC1` (stereo not given): the half-maximal inhibitory concentration (IC50) was less than 20 µM.
On to `O=C(Nc1c[nH]nc1C(=O)NC1CCNCC1)c1ccc(F)cc1`, for which the IC50 is less than 750 µM.
Regarding `CCOc1ccccc1C(=O)Nc1c[nH]nc1C(=O)NC1CCNCC1`, the IC50 was less than 20 µM.
On the same count and under the same terms, to `CC(C)(C)OC(=O)N1CCC(NC(=O)c2n[nH]cc2NC(=O)c2ccccc2)CC1` belongs less than 20 µM; to `CN1CCC(NC(=O)c2n[nH]cc2NC(=O)c2c(F)cccc2Cl)CC1`, less than 20 µM; to `CN1CCC(N2CCC(NC(=O)c3n[nH]cc3NC(=O)c3c(F)cccc3F)CC2)CC1`, less than 20 µM.
On the same count and under the same terms, to `NC[C@H]1CC[C@H](NC(=O)c2n[nH]cc2NC(=O)c2c(F)cccc2F)CC1` belongs less than 20 µM; to `O=C(Nc1c[nH]nc1C(=O)N[C@H]1CC[C@H](O)CC1)Nc1c(F)cccc1F`, less than 20 µM.

A word on the IC50: it is the concentration at which inhibition is half-maximal.
